Among the data in ChEMBL document CHEMBL1671634, “Statins alone are ineffective in cerebral malaria but potentiate artesunate” (2008) are Activity and Survival values, retold here.

Active and inactive are the calls of the source. No cut-off for these calls is given here.

Test [1] concerns Plasmodium falciparum. Kind of test: Antimalarial activity against Plasmodium falciparum infected in mouse assessed as parasitemia at 20 mg/kg, ip, qd administered 4 days post infection for 3 days measured after 6 days (Rvb =8.7+/-1.4 %). The format is functional.
Test [2] deals with Plasmodium falciparum. Briefly: Antimalarial activity against Plasmodium falciparum infected in mouse assessed as mouse survival at 20 mg/kg, ip, qd administered 4 days post infection for 3 days measured after 6 days relative to control. Format: functional, organism-based. More on the design: dose 20 mg/kg.
Test [3] has as its system Plasmodium falciparum. Kind of test: Antimalarial activity against Plasmodium falciparum infected in mouse assessed as mouse survival at 100 mg/kg, ip, qd administered 5 days post infection for 3 days measured after 6 days relative to control. The format is functional, organism-based. Set-up: dose 100 mg/kg.
The test system of test [4] is Plasmodium falciparum. Kind of test: Antimalarial activity against Plasmodium falciparum infected in mouse assessed as parasitemia at 20 mg/kg, ip, qd administered 5 days post infection for 3 days measured after 6 days (Rvb =8.3+/-1.3 %). The format is functional.
In test [5] the test system is Plasmodium falciparum. Briefly: Antimalarial activity against Plasmodium falciparum infected in mouse assessed as mouse survival at 20 mg/kg, ip, qd administered 5 days post infection for 3 days measured after 6 days relative to control. Set-up: dose 20 mg/kg. The format is functional, organism-based.
The subject of test [6] is Plasmodium falciparum. Kind of test: Antimalarial activity against Plasmodium falciparum infected in mouse assessed as parasitemia at 100 mg/kg, ip, qd administered 5 days post infection for 3 days measured after 6 days (Rvb =8.3+/-1.3 %). Format: functional.
Test [7] relates to Plasmodium falciparum. Briefly: Antimalarial activity against Plasmodium falciparum infected in mouse assessed as parasitemia at 200 mg/kg, ip, qd administered 5 days post infection for 3 days measured after 6 days (Rvb =9.9+/-2.2 %). Format: functional.
The test system of test [8] is Plasmodium falciparum. Kind of test: Antimalarial activity against Plasmodium falciparum infected in mouse assessed as mouse survival at 40 mg/kg, ip, qd administered 5 days post infection for 3 days measured after 6 days relative to control. The format is functional, organism-based. More on the design: dose 40 mg/kg.
Test [9] concerns Plasmodium falciparum. Briefly: Antimalarial activity against Plasmodium falciparum infected in mouse assessed as mouse survival at 200 mg/kg, ip, qd administered 5 days post infection for 3 days measured after 6 days relative to control. The format is functional, organism-based. Set-up: dose 200 mg/kg.
Test [10] has as its system Plasmodium falciparum. Kind of test: Antimalarial activity against Plasmodium falciparum infected in mouse assessed as parasitemia at 40 mg/kg, ip, qd administered 5 days post infection for 3 days measured after 6 days (Rvb =9.9+/-2.2 %). The format is functional.
In test [11] the test system is Plasmodium falciparum. Kind of test: Antimalarial activity against Plasmodium falciparum infected in mouse assessed as parasitemia at 40 mg/kg, ip, qd administered 3 days post infection for 6 days measured after 6 days (Rvb =8.0+/-1.6 %). Format: functional.
Test [12] has as its system Plasmodium falciparum. Kind of test: Antimalarial activity against Plasmodium falciparum infected in mouse assessed as mouse survival at 40 mg/kg, ip, qd administered 3 days post infection for 6 days measured after 6 days relative to control. More on the design: dose 40 mg/kg. Format: functional, organism-based.

For the compound `CC(C)c1c(C(=O)Nc2ccccc2)c(-c2ccccc2)c(-c2ccc(F)cc2)n1CC[C@@H](O)C[C@@H](O)CC(=O)O` [ATORVASTATIN], the Activity with Plasmodium falciparum [1] worked out at 9.5%. For the same compound, the Survival entry in the test on Plasmodium falciparum [2] is “inactive”.

As for `CC(C)n1c(/C=C/C(O)CC(O)CC(=O)O)c(-c2ccc(F)cc2)c2ccccc21` (configuration not stated) [FLUVASTATIN], the Survival result with Plasmodium falciparum [3] and in the test on Plasmodium falciparum [5] was “inactive” in each case. Further, the Activity in the test on Plasmodium falciparum [4] and with Plasmodium falciparum [6] was 7.4% each time.

With `CC[C@H](C)C(=O)O[C@H]1C[C@H](O)C=C2C=C[C@H](C)[C@H](CC[C@@H](O)C[C@@H](O)CC(=O)O)[C@H]21` [PRAVASTATIN], the Activity with Plasmodium falciparum [7] was determined as 11.8%; in the test with Plasmodium falciparum [10], 11.5%. Moreover, the Survival entry in the test with Plasmodium falciparum [8] and with Plasmodium falciparum [9] was “inactive” throughout.

Regarding `CCC(C)(C)C(=O)O[C@H]1C[C@@H](C)C=C2C=C[C@H](C)[C@H](CC[C@@H]3C[C@@H](O)CC(=O)O3)[C@H]21` [SIMVASTATIN], the Activity with Plasmodium falciparum [11] came to 8.5%. In the test on Plasmodium falciparum [12], the Survival result is “inactive”.
